Patent publication US10065953B2, “Imidazo[1,2-A]pyridine derivatives for use as inhibitors of human immunodeficiency virus replication” (priority 2014, dated 2018)
Where a name gives a salt, the structure may show the parent alone.

Test system: recombinant NL-Rluc virus
Assay: Inhibition of HIV replication (NL-RLuc luciferase reporter virus in MT-2 cells)
Assay type: cell-based
Conditions: Human immunodeficiency virus 1, MT2, 120 h, MT-2 cells infected with NL-RLuc virus, 5 days of incubation, luciferase readout; serum condition of the table not specified

Row | SMILES | EC50 [µM]
1 | Cc1cc2nc(-c3cccc(-c4ccccc4)c3)cn2c(N2CCC(C)(C)CC2)c1[C@H](OC(C)(C)C)C(=O)O [Example 1, (S)-2-(2-([1,1′-Biphenyl]-3-yl)-5-(4,4-dimethylpiperidin-1-yl)-7-methylimidazo[1,2-a]pyridin-6-yl)-2-(tert-butoxy)acetic Acid] | 0.051
2 | Cc1ccc(-c2cccc(-c3cn4c(N5CCC(C)(C)CC5)c([C@H](OC(C)(C)C)C(=O)O)c(C)cc4n3)c2)cc1 [Example 2, (S)-2-(tert-butoxy)-2-(5-(4,4-dimethylpiperidin-1-yl)-7-methyl-2-(4′-methyl-[1,1′-biphenyl]-3-yl)imidazo[1,2-a]pyridin-6-yl)acetic Acid] | 0.032
3 | Cc1cc2nc(-c3cccc(-c4ccc(F)cc4)c3)cn2c(N2CCC(C)(C)CC2)c1[C@H](OC(C)(C)C)C(=O)O [Example 3, (S)-2-(tert-Butoxy)-2-(5-(4,4-dimethylpiperidin-1-yl)-2-(4′-fluoro-[1,1′-biphenyl]-3-yl)-7-methylimidazo[1,2-a]pyridin-6-yl)acetic Acid] | 0.026
4 | Cc1cc2nc(-c3cccc(-c4cccc(F)c4)c3)cn2c(N2CCC(C)(C)CC2)c1[C@H](OC(C)(C)C)C(=O)O [Example 4, (S)-2-(tert-butoxy)-2-(5-(4,4-dimethylpiperidin-1-yl)-2-(3′-fluoro-[1,1′-biphenyl]-3-yl)-7-methylimidazo[1,2-a]pyridin-6-yl)acetic Acid] | 0.021
5 | Cc1cc2nc(-c3cccc(-c4ccc(F)cc4F)c3)cn2c(N2CCC(C)(C)CC2)c1[C@H](OC(C)(C)C)C(=O)O [Example 5, (S)-2-(tert-Butoxy)-2-(2-(2′,4′-difluoro-[1,1′-biphenyl]-3-yl)-5-(4,4-dimethylpiperidin-1-yl)-7-methylimidazo[1,2-a]pyridin-6-yl)acetic Acid] | 0.029
6 | Cc1ccc(-c2cccc(-c3cn4c(N5CCC(C)(C)CC5)c([C@H](OC(C)(C)C)C(=O)O)c(C)cc4n3)c2)c(F)c1 [Example 6, (S)-2-(tert-Butoxy)-2-(5-(4,4-dimethylpiperidin-1-yl)-2-(2′-fluoro-4′-methyl-[1,1′-biphenyl]-3-yl)-7-methylimidazo[1,2-a]pyridin-6-yl)acetic Acid] | 0.021
7 | Cc1cc2nc(-c3cccc(-c4cccc(C#N)c4)c3)cn2c(N2CCC(C)(C)CC2)c1[C@H](OC(C)(C)C)C(=O)O [Example 7, (S)-2-(tert-Butoxy)-2-(2-(3′-cyano-[1,1′-biphenyl]-3-yl)-5-(4,4-dimethylpiperidin-1-yl)-7-methylimidazo[1,2-a]pyridin-6-yl)acetic Acid] | 0.006
8 | Cc1cc2nc(-c3cccc(-c4cnn(Cc5ccccc5)c4)c3)cn2c(N2CCC(C)(C)CC2)c1[C@H](OC(C)(C)C)C(=O)O [Example 8, (S)-2-(2-(3-(1-Benzyl-1H-pyrazol-4-yl)phenyl)-5-(4,4-dimethylpiperidin-1-yl)-7-methylimidazo[1,2-a]pyridin-6-yl)-2-(tert-butoxy)acetic Acid] | 0.022
9 | Cc1cc2nc(-c3cccc(-c4cnn(C)c4)c3)cn2c(N2CCC(C)(C)CC2)c1[C@H](OC(C)(C)C)C(=O)O [Example 9, (S)-2-(tert-Butoxy)-2-(5-(4,4-dimethylpiperidin-1-yl)-7-methyl-2-(3-(1-methyl-1H-pyrazol-4-yl)phenyl)imidazo[1,2-a]pyridin-6-yl)acetic Acid] | 0.006
10 | Cc1cc(-c2cccc(-c3cn4c(N5CCC(C)(C)CC5)c([C@H](OC(C)(C)C)C(=O)O)c(C)cc4n3)c2)n(C)n1 [Example 10, (S)-2-(tert-Butoxy)-2-(2-(3-(1,3-dimethyl-1H-pyrazol-5-yl)phenyl)-5-(4,4-dimethylpiperidin-1-yl)-7-methylimidazo[1,2-a]pyridin-6-yl)acetic Acid] | 0.007
11 | Cc1cc2nc(-c3cccc(-c4cc(C(F)(F)F)nn4C)c3)cn2c(N2CCC(C)(C)CC2)c1[C@H](OC(C)(C)C)C(=O)O [Example 11, (S)-2-(tert-Butoxy)-2-(5-(4,4-dimethylpiperidin-1-yl)-7-methyl-2-(3-(1-methyl-3-(trifluoromethyl)-1H-pyrazol-5-yl)phenyl)imidazo[1,2-a]pyridin-6-yl)acetic Acid] | 0.021
12 | Cc1ccc(-c2c([C@H](OC(C)(C)C)C(=O)O)c(C)cc3nc(-c4cccc(-c5ccc(F)cc5)c4)cn23)cc1 [Example 14, (S)-2-(tert-butoxy)-2-(2-(4′-fluoro-[1,1′-biphenyl]-3-yl)-7-methyl-5-(p-tolyl)imidazo[1,2-a]pyridin-6-yl)acetic Acid] | 0.02
13 | Cc1cc2nc(-c3cccc(-c4ccc(F)cc4)c3)cn2c(-c2ccc(F)cc2)c1[C@H](OC(C)(C)C)C(=O)O [Example 17, (S)-2-(tert-Butoxy)-2-(2-(4′-fluoro-[1,1′-biphenyl]-3-yl)-5-(4-fluorophenyl)-7-methylimidazo[1,2-a]pyridin-6-yl)acetic Acid] | 0.159
14 | Cc1cc2nc(-c3cccc(-c4ccc(F)cc4)c3)cn2c(-c2ccc3c(c2)CCCO3)c1[C@H](OC(C)(C)C)C(=O)O [Example 18, (S)-2-(tert-Butoxy)-2-(5-(chroman-6-yl)-2-(4′-fluoro-[1,1′-biphenyl]-3-yl)-7-methylimidazo[1,2-a]pyridin-6-yl)acetic Acid] | 0.007
15 | Cc1cc2nc(-c3cccc(-c4ccc(F)cc4)c3)cn2c(-c2ccc3c(c2)C(C)(C)CCO3)c1[C@H](OC(C)(C)C)C(=O)O [Example 19, (S)-2-(tert-Butoxy)-2-(5-(4,4-dimethylchroman-6-yl)-2-(4′-fluoro-[1,1′-biphenyl]-3-yl)-7-methylimidazo[1,2-a]pyridin-6-yl)acetic Acid] | 0.095

Same assay, conditions: MT-2 cells infected with NL-RLuc virus, 5 days of incubation, luciferase readout; serum condition of the table not specified

Row | SMILES | EC50 [µM]
16 | Cc1cc2nc(-c3cccc(-c4ccc(F)cc4)c3)cn2c(-c2ccc3c4c(ccnc24)CCO3)c1[C@H](OC(C)(C)C)C(=O)O [Example 12, (2S)-2-(tert-Butoxy)-2-(5-(2,3-dihydropyrano[4,3,2-de]quinolin-7-yl)-2-(4′-fluoro-[1,1′-biphenyl]-3-yl)-7-methylimidazo[1,2-a]pyridin-6-yl)acetic Acid.TFA] | 0.019
17 | Cc1cc2nc(-c3cccc(-c4ccc(F)cc4)c3)cn2c(-c2ccc3c4c(ccnc24)CCO3)c1[C@H](OC(C)(C)C)C(=O)O [Example 13, (2S)-2-(tert-Butoxy)-2-(5-(2,3-dihydropyrano[4,3,2-de]quinolin-7-yl)-2-(4′-fluoro-[1,1′-biphenyl]-3-yl)-7-methylimidazo[1,2-a]pyridin-6-yl)acetic Acid.TFA] | 0.398
18 | Cc1cc2nc(-c3cccc(-c4ccc(F)cc4)c3)cn2c(-c2cc(F)c3c(c2C)CCCO3)c1[C@H](OC(C)(C)C)C(=O)O [Example 15, (2S)-2-(tert-Butoxy)-2-(5-(8-fluoro-5-methylchroman-6-yl)-2-(4′-fluoro-[1,1′-biphenyl]-3-yl)-7-methylimidazo[1,2-a]pyridin-6-yl)acetic Acid] | 0.175
19 | Cc1cc2nc(-c3cccc(-c4ccc(F)cc4)c3)cn2c(-c2cc(F)c3c(c2C)CCCO3)c1[C@H](OC(C)(C)C)C(=O)O [Example 16, (2S)-2-(tert-Butoxy)-2-(5-(8-fluoro-5-methylchroman-6-yl)-2-(4′-fluoro-[1,1′-biphenyl]-3-yl)-7-methylimidazo[1,2-a]pyridin-6-yl)acetic Acid] | 0.004
